# Data reported in patent US20110281285A1, “Assay for Detecting Cathepsin K Activty in Bone, Cartilage and/or Soft Tissue” (priority 2009, published 2011).
# Non-standard residues stand in square brackets, D forms with d. No end group written: not given here. Hyp = O=C(O)[C@@H]1C[C@@H](O)CN1
# T1: Recombinant human cathepsin K (Homo sapiens, UniProt P43235)
# T1 construct: processed to the mature form and purified as described previously; made in house; host or cells: Pichia pastoris
# T1 sequence (P43235 115-329): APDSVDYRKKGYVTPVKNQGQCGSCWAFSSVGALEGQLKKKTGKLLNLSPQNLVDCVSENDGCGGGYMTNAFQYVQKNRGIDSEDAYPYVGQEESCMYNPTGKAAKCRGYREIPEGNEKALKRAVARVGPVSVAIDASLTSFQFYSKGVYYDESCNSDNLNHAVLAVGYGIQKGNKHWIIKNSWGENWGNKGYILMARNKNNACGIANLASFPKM
# Legend:
# antiserum R771 = assay: Competitive inhibition ELISA for neoepitope specificity of the antiserum; format: binding, rabbit; conditions: for competition by / binding of the antibody to competing synthetic peptide: competitive inhibition ELISA, FIG. 1A and B
# Experimental: A direct enzyme-linked immunosorbent assay (ELISA) assay was used to determine the antibody titer. The antiserum with the highest titer was selected for use. Investigation of the neoepitope specificity of the antiserum was performed by competitive inhibition ELISA as described.^17 The percentage binding and percentage inhibition were calculated for each of the standard peptides and results were expressed on a molar basis.
# (§1) Immulon™ 2 plates (VWR International, Montreal, Canada) were coated with the peptide-ovalbumin conjugate (prepared as described above for the hemocyanin conjugate) diluted in phosphate-buffered saline (PBS), pH 7.2, at 3 ng/well (50 μl/well), the optimum concentration as determined by checkerboard analyses. After overnight incubation at 4° C., the plate was washed three times with PBS-0.1% Tween™ 20 and blocked with 100 μl of PBS-1% bovine serum albumin (BSA), at room temperature for 30 minutes. Serial dilutions of the standard peptide containing the epitope that had been used for immunization were prepared and added at 50 μl/well in triplicate to round bottom polypropylene plates used as preincubation plates; the antiserum was diluted 1:12,000 (optimum dilution as determined by checkerboard analyses) in PBS-1% BSA, 0.1% Tween 20, pH 7.2, and added to the plates (50 μl/well). In the nonspecific binding wells 50 μl of PBS-1% BSA and 50 μl of PBS-1% BSA, 0.1% Tween 20 were added; the maximum binding wells contained 50 μl of the diluted antiserum and 50 μl of PBS-1% BSA. After 1 hour incubation at 37° C., 50 μl of each preincubated well was transferred to the Immulon 2 flat-bottom, 96-well microtiter plates. The plates were incubated at 4° C. for 30 minutes and then washed three times with PBS-0.1% Tween 20. Alkaline phosphatase-conjugated goat antirabbit IgG (Sigma, St. Louis, Mo.), diluted 1:1000 in PBS-1% BSA, 0.1% Tween 20 was then added to each well (50 μl/well). The plate was incubated for 1 hour at 37° C., washed three times with PBS-0.1% Tween 20, and once with distilled water. One 5 mg tablet of alkaline phosphatase substrate (Sigma) was dissolved in 10 ml of 8.9 mmol/L diethanolamine buffer, pH 9.8, and added to the plate (50 μl/well). The optical density (405 nm) was read after 1 hour incubation. The detection limit of the newly developed assay was 2.8 ng/ml and the coefficients of variation (% CV) of the intra-assays and inter-assays were <10%. The analytic recovery was 87.2 to 97.3% and the recovery rates for the serial dilution were 92 to 108%.
# α-chymotrypsin = molecular target: T2, α-chymotrypsin (Bos taurus, UniProt P00766); assay: Treatment of immunizing peptide with α-chymotrypsin; conditions: 50 ng/ml immunizing peptide solution
# T2 construct: purchased Sigma
# Experimental: The content of C2K and C2C neoepitopes in cartilage were determined by extraction with α-chymotrypsin (Sigma). This degrades denatured but not intact triple helical collagen, to solubilize the collagen neoepitopes that can then be assayed. Femoral condylar cartilages from 17 normal and 19 OA individuals were washed and digested with α-chymotrypsin, as previously described.^23 The digest was removed and stored at −20° C. until analyzed. To ensure that the cathepsin K-generated neoepitope is not cleaved by α-chymotrypsin, a separate digestion was first performed by treating a 50 ng/ml immunizing peptide solution with α-chymotrypsin as described above. […] The concentration of the neoepitope released from the cartilage in the α-chymotrypsin digests was expressed as pmol of neoepitope/mg wet wt of cartilage (based on the molecular weights of the two neoepitope sequences used as standards in the ELISA assays: 717.8 Da for the C2K neoepitope and 972 Da for C2C).
# [1] = molecular target: T1, Recombinant human cathepsin K; assay: Digestion of human Col II with cathepsin K, C2K neoepitope by inhibition ELISA; format: biochemical; conditions: pH 7.0, 2 μmol/L cathepsin K, peak at 48 hours, versus absence of chondroitin sulfate (FIG. 4)
# Experimental: as §1, with “Alkaline phosphatase-conjugated goat antirabbit IgG (Sigma, St. Louis, Mo.), diluted 1:1000 in PBS-1% BSA, 0.1% Tween 20 was then added to each well (50 μl/well). The plate was incubated for 1 hour at 37° C., washed three times with PBS-0.1% Tween 20, and once with distilled water. One 5 mg tablet of alkaline phosphatase substrate (Sigma) was dissolved in 10 ml of 8.9 mmol/L diethanolamine buffer, pH 9.8, and added to the plate (50 μl/well).” left out, “The detection limit of the newly developed assay was 2.8 ng/ml and the coefficients of variation (% CV) of the intra-assays and inter-assays were <10%. The analytic recovery was 87.2 to 97.3% and the recovery rates for the serial dilution were 92 to 108%.” left out
# [2] = molecular target: antiserum R771 (rabbit polyclonal anti-C2K neoepitope antiserum); assay: competitive inhibition ELISA: free peptide against plate-bound peptide-ovalbumin conjugate, antiserum R771 at 1:12,000
Molecule,competition by / binding of the antibody to competing synthetic peptide (antiserum R771),further results
(i): one-residue truncation of the immunizing peptide at the C terminus (CGEAGKP; listed as Homo sapiens),negligible,
"CGEAGKPG [immunizing peptide, N-terminal cysteine added]",,"IC50 (antiserum R771; peptide alone as competitive antigen, antiserum R771 diluted 1:12,000, read-out: median inhibitory concentration (IC50) in ELISA inhibition assay): 45 nM; loss of epitope after α-chymotrypsin treatment (α-chymotrypsin): No loss of epitope"
chondroitin 6-sulfate [C6S],,amount of C2K neoepitope on addition to the digestion buffer [1]: significantly increased
chondroitin 4-sulfate [C4S],,amount of C2K neoepitope on addition to the digestion buffer [1]: significantly increased
"peptide (iv): N-terminally truncated peptide, deletion of the G (CEAGKPG; listed as Homo sapiens)",some affinity,
(v): immunizing peptide with deletion of the alanine residue (CGEGKPG; listed as Homo sapiens),negligible binding,
CGEAGKPG,,IC50 [2]: 45 nM

# Further lines, with some results ahead:
competition by / binding of the antibody to competing synthetic peptide (antiserum R771),Molecule,further results
negligible,(ii): one-residue extension of the immunizing peptide at the C terminus (CGEAGKPGK; listed as Homo sapiens),
negligible binding,(vi): immunizing peptide with glutamic acid and alanine residues inverted (CGAEGKPG; listed as Homo sapiens),
reduced affinity,"peptide iii: sequence similar to the immunizing peptide, except for the proline residue that was 4-hydroxylated (CGEAGK[Hyp]G)",
